Assay results reported in patent publication US20170368082A1, “FORMULATIONS OF BRINCIDOFOVIR” (priority 2016, published 2017).
Marks after values point to notes of the source that are not given here.

Assay: 28-day intravenous infusion toxicity study with 14-day recovery
Assay type: in vivo, Sprague-Dawley CD rats
Details: for Testicular germ cell depletion, severity: terminal sacrifice
Description: Sprague-Dawley CD® rats (15/sex/group) were administered 0 (2× Sodium Phosphate Buffer Solution), 1, 4 or 15 mg/kg/dose brincidofovir twice per week via 2-hour intravenous infusion on a total of 9 occasions over 29 days. The dose rate was 10 mL/kg/hr for all dose groups. At the end of the treatment phase, up to 10 animals/sex/group were euthanized and necropsied. The remaining animals (up to 5 animals/sex/group) were held for a 14-day recovery phase in order to determine progression or reversibility of any brincidofovir-related effects. Satellite animals (up to 3/sex/group) were similarly dosed and serial blood samples were collected from each animal on Days 1 and 29 for toxicokinetic analysis of brincidofovir and the brincidofovir metabolite (Cidofovir, CDV). Parameters evaluated during the study were: viability, clinical observations, ophthalmology, body weights, food consumption, clinical pathology (termination of dosing and end of recovery), organ weights, macroscopic observations and microscopic pathology.
The test/control item was administered via 2 hours intravenous infusion twice weekly for a total of 9 individual doses over 29 days. Test/control item administration continued through the day prior to terminal necropsy. Recovery animals were held for a 14 day observation period after the last dose.
Animals in extremely poor health or in a possible moribund condition were identified for further monitoring and possible euthanasia.
Observations were made immediately and 2 hours after the completion of dosing for any signs of poor health or toxic or pharmacologic effects (e.g., abnormalities in general condition, appearance, activity, behavior, respiration, etc.).
Blood obtained via the orbital sinus (retrobulbar venous plexus) under light isoflurane anesthesia was used to analyze hematology, coagulation and clinical chemistry parameters for up to 10 toxicity animals/sex/group at the termination of dosing and up to 5 recovery animals/sex/group at the end of recovery. Animals were fasted overnight prior to each blood collection interval.
Necropsy was performed on up to 10 toxicity study animals/sex/group after animals had been treated for 29 days and on up to 5 toxicity study animals/sex/group after a 14 day treatment-free recovery period. Animals were fasted overnight prior to necropsy. Necropsy schedules were established to ensure that examination of animals of both sexes from each group were performed at similar times of the day throughout the necropsy periods.
Complete macroscopic examinations were performed on all animals. The macroscopic examination included examination of the external surface and all orifices; the external surfaces of the brain and spinal cord; the organs and tissues of the cranial, thoracic, abdominal and pelvic cavities and neck; and the remainder of the carcass for the presence of macroscopic morphologic abnormalities.
The tissues listed below were obtained from all animals and preserved. In addition, slides of the indicated tissues were prepared and examined microscopically. Any abnormalities not noted during macroscopic examinations which were seen during histology processing were recorded.
After fixation, the tissues and organs from all animals were routinely processed, embedded in paraffin, cut at a microtome setting of 4-7 microns, mounted on glass slides, stained with hematoxylin and eosin and examined by light microscopy. The bones were decalcified in Decalcifier II™.

[1] = females (2F), 1 mg/kg/dose, 29 day period, 11 tissues examined
[2] = females (3F), 4 mg/kg/dose, 29 day period, 10 tissues examined
[3] = females (4F), 15 mg/kg/dose, 29 day period, 10 tissues examined
[4] = females (4F), 15 mg/kg/dose, following 14-day recovery period, 5 tissues examined
[5] = males (2M), 1 mg/kg/dose, 29 day period, 10 tissues examined
[6] = males (2M), 1 mg/kg/dose, following 14-day recovery period, 5 tissues examined
[7] = males (3M), 4 mg/kg/dose twice weekly, 29 day period, statistically significant
[8] = males (3M), 4 mg/kg/dose, 29 day period, 10 tissues examined
[9] = males (3M), 4 mg/kg/dose, following 14-day recovery period, 5 tissues examined
[10] = males (3M), 4 mg/kg/dose, following 14-day recovery period, statistically significant
[11] = males (4M), 15 mg/kg/dose twice weekly, 29 day period, statistically significant
[12] = males (4M), 15 mg/kg/dose, 29 day period, 10 tissues examined
[13] = males (4M), 15 mg/kg/dose, following 14-day recovery period, 5 tissues examined
[14] = males (4M), 15 mg/kg/dose, following 14-day recovery period, statistically significant

## CCCCCCCCCCCCCCCCOCCCOP(=O)(O)CO[C@H](CO)Cn1ccc(N)nc1=O [Brincidofovir]
1, 4 or 15 mg/kg/dose
  mortality: no brincidofovir-related mortalities
4 and 15 mg/kg/dose, both sexes
  Clinical observations, dosing phase: intermittent clinical signs
females
  No-observed-adverse-effect level (NOAEL): 4 mg/kg/dose
Females 15 mg/kg/dose, Week 3
  Decrease in food consumption vs concurrent controls (to): −9.8%
[1]
  Intestinal tract findings: Total Animals Represented: 0
  Skin findings: Total Animals Represented: 0
Females (2F), 1 mg/kg/dose, following 14-day recovery period, 4 tissues examined
  Bone marrow findings: Total Animals Represented: 0
[2]
  Intestinal tract findings: Total Animals Represented: 9
  Skin findings: Total Animals Represented: 0
  Small intestine: Necrosis, Epithelium, Crypts, Minimal (incidence): 9
Females (3F), 4 mg/kg/dose, following 14-day recovery period, 5 tissues examined
  Bone marrow findings: Total Animals Represented: 0
[3]
  Intestinal tract findings: Total Animals Represented: 9
  Large intestine: Necrosis, Epithelium, glands, Minimal (incidence): 4
  Skin findings: Total Animals Represented: 10
  Skin: Atrophy, Sebaceous Glands, Marked (incidence): 2
  Skin: Atrophy, Sebaceous Glands, Moderate (incidence): 3
  Skin: Atrophy, Sebaceous Glands, Slight (incidence): 5
  Small intestine: Hyperplasia, Epithelium, Crypts, Minimal (incidence): 5
  Small intestine: Necrosis, Epithelium, Crypts, Minimal (incidence): 3
  Small intestine: Necrosis, Epithelium, Crypts, Moderate (incidence): 1
  Small intestine: Necrosis, Epithelium, Crypts, Slight (incidence): 5
[4]
  Bone marrow findings: Total Animals Represented: 2
  Bone marrow: Cellularity, Decreased, Minimal (incidence): 2
females, 15 mg/kg/dose
  Incidence of bone marrow decreased cellularity after recovery: 2/5
[5]
  Intestinal tract findings: Total Animals Represented: 0
  Male reproductive tract findings: Total Animals Represented: 0
  Skin findings: Total Animals Represented: 0
[6]
  Bone marrow findings: Total Animals Represented: 0
  Male reproductive tract findings: Total Animals Represented: 0
Males (3M), 4 mg/kg/dose twice weekly, 29 day period
  Testes weight vs. body weight, % difference relative to controls: −3%
[7]
  Testes absolute weight, % difference relative to controls: −9^a %
  Testes weight vs. brain weight, % difference relative to controls: −9^a %
[8]
  Intestinal tract findings: Total Animals Represented: 9
  Male reproductive tract findings: Total Animals Represented: 10
  Seminal Vesicles: Apoptosis, Epithelial, Minimal (incidence): 4
  Skin findings: Total Animals Represented: 0
  Small intestine: Hyperplasia, Epithelium, Crypts, Minimal (incidence): 5
  Small intestine: Necrosis, Epithelium, Crypts, Minimal (incidence): 8
  Small intestine: Necrosis, Epithelium, Crypts, Slight (incidence): 1
  Testes: Depletion, Germ Cell, Minimal (incidence): 6
  Testes: Depletion, Germ Cell, Slight (incidence): 3
[9]
  Bone marrow findings: Total Animals Represented: 0
  Male reproductive tract findings: Total Animals Represented: 5
  Testes: Depletion, Germ Cell, Minimal (incidence): 1
  Testes: Depletion, Germ Cell, Slight (incidence): 4
[10]
  Testes absolute weight, % difference relative to controls: −21^a %
  Testes weight vs. body weight, % difference relative to controls: −26^a %
  Testes weight vs. brain weight, % difference relative to controls: −18^a %
Males (4M), 15 mg/kg/dose twice weekly, 29 day period
  Epididymides weight vs. body weight, % difference relative to controls: −6%
[11]
  Epididymides absolute weight, % difference relative to controls: −14^a %
  Epididymides weight vs. brain weight, % difference relative to controls: −13^a %
  Testes absolute weight, % difference relative to controls: −24^a %
  Testes weight vs. body weight, % difference relative to controls: −16^a %
  Testes weight vs. brain weight, % difference relative to controls: −22^a %
[12]
  Epididymides: Cell Debris, Luminal, Minimal (incidence): 9
  Intestinal tract findings: Total Animals Represented: 10
  Large intestine: Necrosis, Epithelium, glands, Minimal (incidence): 9
  Male reproductive tract findings: Total Animals Represented: 10
  Seminal Vesicles: Apoptosis, Epithelial, Minimal (incidence): 8
  Seminal Vesicles: Mitotic Figures, Epithelial, Minimal (incidence): 4
  Skin findings: Total Animals Represented: 10
  Skin: Atrophy, Sebaceous Glands, Marked (incidence): 4
  Skin: Atrophy, Sebaceous Glands, Moderate (incidence): 3
  Skin: Atrophy, Sebaceous Glands, Slight (incidence): 3
  Small intestine: Hyperplasia, Epithelium, Crypts, Minimal (incidence): 2
  Small intestine: Necrosis, Epithelium, Crypts, Minimal (incidence): 2
  Small intestine: Necrosis, Epithelium, Crypts, Slight (incidence): 8
  Testes: Depletion, Germ Cell, Moderate (incidence): 5
  Testes: Depletion, Germ Cell, Slight (incidence): 5
[13]
  Bone marrow findings: Total Animals Represented: 3
  Bone marrow: Cellularity, Decreased, Slight (incidence): 3
  Epididymides: Cell Debris, Luminal, Minimal (incidence): 5
  Epididymides: Sperm, Reduced, Luminal, Marked (incidence): 4
  Epididymides: Sperm, Reduced, Luminal, Severe (incidence): 1
  Male reproductive tract findings: Total Animals Represented: 5
  Testes: Depletion, Germ Cell, Marked (incidence): 4
  Testes: Depletion, Germ Cell, Moderate (incidence): 1
[14]
  Testes absolute weight, % difference relative to controls: −42^a %
  Testes weight vs. body weight, % difference relative to controls: −40^a %
  Testes weight vs. brain weight, % difference relative to controls: −41^a %
Males and females 15 mg/kg/dose
  Sebaceous gland atrophy, severity: slight to marked
Males and females ≧4 mg/kg/dose
  Single cell necrosis of crypt epithelium in small intestine, severity: minimal to moderate
Males ≧1 mg/kg/dose, Week 4
  Decrease in food consumption vs concurrent controls (to): −16%
males, 4 mg/kg/dose
  Testicular germ cell depletion, severity: minimal to slight
males, 15 mg/kg/dose
  Incidence of bone marrow decreased cellularity after recovery: 3/5
  Testicular germ cell depletion, severity: slight to moderate
males, twice weekly 2-h IV infusion
  No-observed-adverse-effect level (NOAEL): 1 mg/kg/dose
rat, in vivo
  Diarrhea: none of the animals in the present study experienced diarrhea
  Effects on ophthalmology, body weights, hematology, coagulation, clinical chemistry, urinalysis: no brincidofovir-related effects
  Transaminase elevations: No transaminase elevations were observed
